Reference: patent US8124624B2, “Substituted sulfonamide compounds” (Gruenenthal GmbH, priority 2008, dated 2012)
Read-outs that look alike come from different tables or passages of the source.

Experiments:
human B1R = molecular target: T1, human B1R (Homo sapiens, UniProt P46663); assay: FLIPR Ca2+ influx assay, B1R antagonism, human (hB1R CHO K1 cells); assay type: cell-based
T1 construct: expressed in transfected cells; host or cells: CHO K1 cells (hB1R cells)
T1 sequence (P46663 1-353): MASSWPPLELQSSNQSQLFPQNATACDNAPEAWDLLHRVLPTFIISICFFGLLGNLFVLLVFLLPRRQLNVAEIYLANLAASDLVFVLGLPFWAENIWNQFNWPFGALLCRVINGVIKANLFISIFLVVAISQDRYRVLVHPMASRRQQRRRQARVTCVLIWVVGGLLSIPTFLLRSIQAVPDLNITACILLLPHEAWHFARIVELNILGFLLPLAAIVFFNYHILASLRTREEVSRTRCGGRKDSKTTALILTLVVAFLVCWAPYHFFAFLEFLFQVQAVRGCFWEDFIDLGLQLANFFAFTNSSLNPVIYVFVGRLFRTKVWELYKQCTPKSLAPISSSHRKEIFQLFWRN
Method: (§1) The agonistic or antagonistic action of substances can be quantified on the bradykinin receptor 1 (B1R) of the species human and rat using ectopically expressing cell lines (CHO K1 cells) and with the aid of a Ca^2+-sensitive dye (Fluo-4) using a fluorescent imaging plate reader (FLIPR). The indication in % activation is based on the Ca^2+ signal after addition of Lys-Des-Arg^9-bradykinin (0.5 nM) or Des-Arg^9-bradykinin (100 nM). Antagonists lead to suppression of the Ca^2+ influx after the addition of the agonist. % Inhibition compared with the maximum achievable inhibition is indicated.
(§2) The agonistic or antagonistic action of substances can be determined on the bradykinin receptor 1 (B1R) of the species human and rat using the following assay. According to this assay, the Ca^2+ influx through the channel is quantified with the aid of a Ca^2+-sensitive dye (Fluo-4 type, Molecular Probes Europe BV, Leiden, Netherlands) using a Fluorescent Imaging Plate Reader (FLIPR, Molecular Devices, Sunnyvale, USA).
(§3) Chinese hamster ovary cells (CHO K1 cells) which have been stably transfected with the human B1R gene (hB1R cells) or with the B1R gene of the rat (rB1R cells) are used. For functional studies, the cells are plated out on black 96-well plates having a clear base (BD Biosciences, Heidelberg, Germany or Greiner, Frickenhausen, Germany) in a density of 20,000-35,000 cells/well. The cells are incubated overnight at 37° C. and with 5% CO2 in culture medium (hB1R cells: Nutrient Mixture Ham's F12, Gibco Invitrogen GmbH, Karlsruhe, Germany or DMEM, Sigma-Aldrich, Taufkirchen, Germany; rB1R cells: D-MEM/F12, Gibco Invitrogen GmbH, Karlsruhe, Germany), with 10 vol. % FBS (fetal bovine serum, Gibco Invitrogen GmbH, Karlsruhe, Germany or PAN Biotech GmbH, Aidenbach, Germany).
(§4) On the following day, the cells are loaded for 60 minutes at 37° C. with 2.13 μM Fluo-4 (Molecular Probes Europe BV, Leiden, Netherlands) in HBSS buffer (Hank's buffered saline solution, Gibco Invitrogen GmbH, Karlsruhe, Germany) […] (Sigma-Aldrich, Taufkirchen, Germany) and 10 mM HEPES (Sigma-Aldrich, Taufkirchen, Germany). The plates are then washed twice with HBSS buffer, and HBSS buffer additionally containing 0.1% BSA (bovine serum albumin; Sigma-Aldrich, Taufkirchen, Germany), 5.6 mM glucose and 0.05% gelatin (Merck KGaA, Darmstadt, Germany) is added to the plates. After incubation for a further 20 minutes at room temperature, the plates are inserted into the FLIPR for Ca^2+ measurement.
(§5) Alternatively, washing is carried out with buffer A (15 mM HEPES, 80 mM NaCl, 5 mM KCl, 1.2 mM CaCl2, 0.7 mM MgSO4, 2 g/l glucose, 2.5 mM probenecid) followed by loading with buffer A with added 2.5 μM Fluo-4 and 0.025% Pluronic F127 (Sigma-Aldrich, Taufkirchen, Germany). The cells are then washed twice with buffer A and incubated for 30 minutes at room temperature with buffer A additionally containing 0.05% BSA and 0.05% gelatin and are then inserted into the FLIPR for Ca^2+ measurement.
(§6) The Ca^2+-dependent fluorescence is measured before and after the addition of substances (λex=488 nm, λem=540 nm). Quantification is carried out by measuring the highest fluorescence intensity (FC, fluorescence counts) over time.
(§7) The FLIPR protocol consists of two substance additions. Test substances (10 μM) are first pipetted onto the cells and the Ca^2+ influx is compared with the control (hB1R: Lys-Des-Arg^9-bradykinin >=50 nM; rB1R: Des-Arg^9-bradykinin 10 μM). This gives the activation in %, based on the Ca^2+ signal after addition of Lys-Des-Arg^9-bradykinin (>=50 nM) or Des-Arg^9-bradykinin (10 μM). After 10-20 minutes' incubation, Lys-Des-Arg^9-bradykinin (hB1R) or Des-Arg^9-bradykinin (rB1R) is applied in the concentration of the EC80, and the influx of Ca^2+ is likewise determined. Antagonists lead to suppression of the Ca^2+ influx. The % inhibition compared with the maximum achievable inhibition is calculated. […]

B1R of the rat = molecular target: T2, B1R of the rat (Rattus norvegicus, UniProt P97583); assay: FLIPR Ca2+ influx assay, B1R antagonism, rat (rB1R CHO K1 cells); assay type: cell-based
T2 construct: expressed in transfected cells; host or cells: CHO K1 cells (rB1R cells)
T2 sequence (P97583 1-337): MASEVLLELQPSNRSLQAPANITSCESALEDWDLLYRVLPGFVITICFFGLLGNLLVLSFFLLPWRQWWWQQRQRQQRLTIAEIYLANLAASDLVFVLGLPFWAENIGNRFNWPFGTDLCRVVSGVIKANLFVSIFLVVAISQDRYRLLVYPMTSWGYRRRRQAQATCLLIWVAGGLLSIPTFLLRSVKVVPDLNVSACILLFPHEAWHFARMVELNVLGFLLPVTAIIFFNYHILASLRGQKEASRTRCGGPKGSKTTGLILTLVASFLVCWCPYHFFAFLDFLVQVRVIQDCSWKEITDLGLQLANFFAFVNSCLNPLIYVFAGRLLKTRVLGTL
Method: as §1, §2, §3, §4, §5, §6, §7

[1] = test substance 10 μM, CHO K1 cells stably transfected with human B1R, agonist Lys-Des-Arg9-bradykinin at EC80, % inhibition compared with maximum achievable inhibition, read-out: B1R antagonism, human [10 μM] % inhibition
[2] = test substance 10 μM, CHO K1 cells stably transfected with rat B1R, agonist Des-Arg9-bradykinin at EC80, % inhibition compared with maximum achievable inhibition, read-out: B1R antagonism, rat [10 μM] % inhibition
[3] = CHO-K1, read-out: B1R antagonism, human [10 μM] % inhibition
[4] = CHO-K1, read-out: B1R antagonism, rat [10 μM] % inhibition

| SMILES | inhibition at 10 µM (human B1R; [1]) [%] | inhibition at 10 µM (B1R of the rat; [2]) [%] | inhibition at 10 µM (human B1R; [3]) [%] | inhibition at 10 µM (B1R of the rat; [4]) [%] | B1R antagonism, human [10 μM] % inhibition (human B1R; test substance 10 μM, CHO K1 cells stably transfected with human B1R, agonist Lys-Des-Arg9-bradykinin at EC80, % inhibition compared with maximum achievable inhibition) [%] |
| --- | --- | --- | --- | --- | --- |
| O=C(CC(NS(=O)(=O)c1ccc2ccccc2c1)c1ccccc1)N1CCC(CCN2CCCC2)(c2cccnc2)CC1 (centres unmarked) [Example 1, N-(3-Oxo-1-phenyl-3-(4-(pyridin-3-yl)-4-(2-(pyrrolidin-1-yl)ethyl)piperidin-1-yl)propyl)naphthalene-2-sulfonamide] | 104 | 63 | – | – | – |
| COc1cc(C)c(S(=O)(=O)N2CCCCC2COCC(=O)N2CCC(CCN3CCCC3)(c3cccnc3)CC2)c(C)c1 (centres unmarked) [Example 2, 2-((1-(4-Methoxy-2,6-dimethylphenylsulfonyl)piperidin-2-yl)methoxy)-1-(4-(pyridin-3-yl)-4-(2-(pyrrolidin-1-yl)ethyl)piperidin-1-yl)ethanone] | – | – | 103 | 102 | – |
| COc1cc(C)c(S(=O)(=O)N(C)CCOCC(=O)N2CCC(CCN3CCCC3)(c3cccnc3)CC2)c(C)c1 [Example 3, 4-Methoxy-N,2,6-trimethyl-N-(2-(2-oxo-2-(4-(pyridin-3-yl)-4-(2-(pyrrolidin-1-yl)ethyl)piperidin-1-yl)ethoxy)ethyl)benzenesulfonamide] | – | – | 103 | 101 | – |
| O=C(CC1CCCCN1S(=O)(=O)c1cccc(C(F)(F)F)c1)N1CCC(CCN2CCCC2)(c2cccnc2)CC1 (centres unmarked) [Example 4, 1-(4-(Pyridin-3-yl)-4-(2-(pyrrolidin-1-yl)ethyl)piperidin-1-yl)-2-(1-(3-(trifluoromethyl)phenylsulfonyl)piperidin-2-yl)ethanone] | – | – | 103 | 102 | – |
| Cc1cc(S(=O)(=O)N2CCCCC2CCC(=O)N2CCC(CCN3CCCC3)(c3cccnc3)CC2)c(C)cc1Cl (centres unmarked) [Example 5, 3-(1-(4-Chloro-2,5-dimethylphenylsulfonyl)piperidin-2-yl)-1-(4-(pyridin-3-yl)-4-(2-(pyrrolidin-1-yl)ethyl)piperidin-1-yl)propan-1-one] | 101 | 61 | – | – | – |
| O=C(COCC1CCc2ccccc2N1S(=O)(=O)c1ccc(Cl)c(Cl)c1)N1CCC(CCN2CCCC2)(c2cccnc2)CC1 (centres unmarked) [Example 6, 2-((1-(3,4-Dichlorophenylsulfonyl)-1,2,3,4-tetrahydroquinolin-2-yl)methoxy)-1-(4-(pyridin-3-yl)-4-(2-(pyrrolidin-1-yl)ethyl)piperidin-1-yl)ethanone] | 100 | 85 | – | – | – |
| CN(C)CCC1(c2cccnc2)CCN(C(=O)CC(NS(=O)(=O)c2ccc3ccccc3c2)c2ccccc2)CC1 (centres unmarked) [Example 7, N-(3-(4-(2-(Dimethylamino)ethyl)-4-(pyridin-3-yl)piperidin-1-yl)-3-oxo-1-phenylpropyl)naphthalene-2-sulfonamide] | 89 | 37 | – | – | – |
| COc1cc(C)c(S(=O)(=O)N2CCCCC2COCC(=O)N2CCC(CCN(C)C)(c3cccnc3)CC2)c(C)c1 (centres unmarked) [Example 8, 1-(4-(2-(Dimethylamino)ethyl)-4-(pyridin-3-yl)piperidin-1-yl)-2-((1-(4-methoxy-2,6-dimethylphenylsulfonyl)piperidin-2-yl)methoxy)ethanone] | 104 | 102 | – | – | – |
| COc1cc(C)c(S(=O)(=O)N(C)CCOCC(=O)N2CCC(CCN(C)C)(c3cccnc3)CC2)c(C)c1 [Example 9, N-(2-(2-(4-(2-(Dimethylamino)ethyl)-4-(pyridin-3-yl)piperidin-1-yl)-2-oxoethoxy)ethyl)-4-methoxy-N,2,6-trimethylbenzenesulfonamide] | 104 | 102 | – | – | – |
| CN(C)CCC1(c2cccnc2)CCN(C(=O)CC2CCCCN2S(=O)(=O)c2cccc(C(F)(F)F)c2)CC1 (centres unmarked) [Example 10, 1-(4-(2-(Dimethylamino)ethyl)-4-(pyridin-3-yl)piperidin-1-yl)-2-(1-(3-(trifluoromethyl)phenylsulfonyl)piperidin-2-yl)ethanone] | 103 | 65 | – | – | – |
| Cc1cc(S(=O)(=O)N2CCCCC2CCC(=O)N2CCC(CCN(C)C)(c3cccnc3)CC2)c(C)cc1Cl (centres unmarked) [Example 11, 3-(1-(4-Chloro-2,5-dimethylphenylsulfonyl)piperidin-2-yl)-1-(4-(2-(dimethylamino)ethyl)-4-(pyridin-3-yl)piperidin-1-yl)propan-1-one] | 102 | 101 | – | – | – |
| CN(C)CCC1(c2cccnc2)CCN(C(=O)COCC2CCc3ccccc3N2S(=O)(=O)c2ccc(Cl)c(Cl)c2)CC1 (centres unmarked) [Example 12, 2-((1-(3,4-Dichlorophenylsulfonyl)-1,2,3,4-tetrahydroquinolin-2-yl)methoxy)-1-(4-(2-(dimethylamino)ethyl)-4-(pyridin-3-yl)piperidin-1-yl)ethanone] | 103 | 90 | – | – | – |
| COc1cc(C)c(S(=O)(=O)N2c3ccccc3CCC2COCC(=O)N2CCC(CCCN3CCCC3)(c3cccnc3)CC2)c(C)c1 (centres unmarked) [Example 54, 2-[[1-[(4-Methoxy-2,6-dimethyl-phenyl)sulfonyl]-1,2,3,4-tetrahydro-quinolin-2-yl]-methoxy]-1-[4-pyridin-3-yl-4-(3-pyrrolidin-1-yl-propyl)-piperidin-1-yl]-ethanone] | – | – | – | – | 100 |
| COc1cc(C)c(S(=O)(=O)N(CCOCC(=O)N2CCC(CCCN3CCCC3)(c3ccncc3)CC2)Cc2ccc3c(c2)OCOC3)c(C)c1 [Example 76, N-(4H-[1,3]Benzodioxin-7-yl-methyl)-4-methoxy-2,6-dimethyl-N-[2-[2-oxo-2-[4-pyridin-4-yl-4-(3-pyrrolidin-1-yl-propyl)-piperidin-1-yl]-ethoxy]-ethyl]-benzenesulfonic acid amide] | – | 101 | – | – | – |
